Test results taken from patent US8377884B2, “Variants of C-type natriuretic peptides” (Biomarin Pharmaceutical Inc., priority 2007, dated 2013).
Bridge positions count the residues as written; N and C are the ends. Square brackets hold non-standard residues; d marks the D form. Ends that are not written are not given here. Peptide text beside a SMILES is read from it. * marks the point of attachment. Phe(3,4-Cl2) = N[C@@H](Cc1ccc(Cl)c(Cl)c1)C(=O)O; Phe(3-Me) = Cc1cccc(C[C@H](N)C(=O)O)c1; Heptanoyl = CCCCCCC(=O)*; Pentanoyl = CCCCC(=O)*

Assays:
[1] = molecular target: neutral endopeptidase (NEP) (Homo sapiens, UniProt P08473); experiment: in vitro; settings: human, pH 7
Experimental: To determine the effects of amino acid substitutions, amino acid extensions, backbone modifications, side chain modifications and PEGylation on the susceptibility of CNP variants to neutral endopeptidase (NEP) cleavage, peptide cleavage assays were carried out using an in vitro assay that monitored disappearance of the non-cleaved CNP variant.
Recombinant human NEP (1 ug/mL final concentration) was added to 100 uM CNP variant diluted in 0.1 M Tris, pH 7. The reaction mixture was incubated at 37° C. for various periods of time, and the reaction was quenched with EDTA (10 mM final) followed by heat denaturation. The reaction mixture was reduced and then the reaction products were analyzed using HPLC and mass spectroscopy. The half-life of the CNP variant was calculated based on the disappearance of intact CNP variant over time.

NPR-B = molecular target: T1, NPR-B (Mus musculus, UniProt Q6VVW5); experiment: Stimulation of cGMP production in NIH3T3 cells; type: cell-based, Murine; settings: NIH3T3 cells, normalized to cell number and cGMP production with 1 uM wtCNP22; for cGMP response relative to 1 uM CNP22 (%) at 0.01 µM: 10 nM natriuretic peptide, read-out: cGMP Response rel. to 1 uM CNP22, 10 nM; for cGMP response relative to 1 uM CNP22 (%) at 1 µM: 1 uM natriuretic peptide, read-out: cGMP Response rel. to 1 uM CNP22, 1 uM
T1 construct: Murine NIH3T3 cells express endogenously the CNP signaling receptor, NPR-B; endogenous in cells; host or cells: NIH3T3 (murine fibroblasts)
T1 sequence (Q6VVW5 17-1047): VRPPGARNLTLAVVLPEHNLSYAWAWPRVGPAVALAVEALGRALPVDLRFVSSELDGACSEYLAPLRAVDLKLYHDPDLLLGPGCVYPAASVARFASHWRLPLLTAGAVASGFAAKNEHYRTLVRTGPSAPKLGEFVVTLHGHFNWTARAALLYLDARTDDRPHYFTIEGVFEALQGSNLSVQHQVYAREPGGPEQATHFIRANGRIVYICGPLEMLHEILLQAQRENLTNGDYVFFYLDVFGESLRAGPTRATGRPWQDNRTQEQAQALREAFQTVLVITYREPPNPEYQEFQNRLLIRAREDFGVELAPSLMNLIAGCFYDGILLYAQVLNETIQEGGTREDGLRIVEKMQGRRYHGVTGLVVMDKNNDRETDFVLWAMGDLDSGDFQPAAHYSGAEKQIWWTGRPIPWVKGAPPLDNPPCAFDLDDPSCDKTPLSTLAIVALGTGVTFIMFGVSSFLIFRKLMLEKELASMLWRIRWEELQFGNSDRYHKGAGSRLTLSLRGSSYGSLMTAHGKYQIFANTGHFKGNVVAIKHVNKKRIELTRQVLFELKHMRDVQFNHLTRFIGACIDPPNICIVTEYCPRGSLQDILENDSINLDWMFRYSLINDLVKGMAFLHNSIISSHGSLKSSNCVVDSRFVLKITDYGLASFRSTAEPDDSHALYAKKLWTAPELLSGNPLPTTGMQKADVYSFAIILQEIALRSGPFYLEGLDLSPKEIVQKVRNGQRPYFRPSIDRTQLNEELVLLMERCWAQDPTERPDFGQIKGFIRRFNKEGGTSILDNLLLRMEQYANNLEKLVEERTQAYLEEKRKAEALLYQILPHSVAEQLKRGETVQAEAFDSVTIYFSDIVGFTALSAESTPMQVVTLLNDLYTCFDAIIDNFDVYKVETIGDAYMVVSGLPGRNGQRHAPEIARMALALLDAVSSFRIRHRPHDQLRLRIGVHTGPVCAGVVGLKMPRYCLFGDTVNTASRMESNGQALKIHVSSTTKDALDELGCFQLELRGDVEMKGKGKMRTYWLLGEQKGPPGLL

[2] = recombinant human neutral endopeptidase (NEP)

Sequence of neutral endopeptidase (NEP) (P08473 whole entry): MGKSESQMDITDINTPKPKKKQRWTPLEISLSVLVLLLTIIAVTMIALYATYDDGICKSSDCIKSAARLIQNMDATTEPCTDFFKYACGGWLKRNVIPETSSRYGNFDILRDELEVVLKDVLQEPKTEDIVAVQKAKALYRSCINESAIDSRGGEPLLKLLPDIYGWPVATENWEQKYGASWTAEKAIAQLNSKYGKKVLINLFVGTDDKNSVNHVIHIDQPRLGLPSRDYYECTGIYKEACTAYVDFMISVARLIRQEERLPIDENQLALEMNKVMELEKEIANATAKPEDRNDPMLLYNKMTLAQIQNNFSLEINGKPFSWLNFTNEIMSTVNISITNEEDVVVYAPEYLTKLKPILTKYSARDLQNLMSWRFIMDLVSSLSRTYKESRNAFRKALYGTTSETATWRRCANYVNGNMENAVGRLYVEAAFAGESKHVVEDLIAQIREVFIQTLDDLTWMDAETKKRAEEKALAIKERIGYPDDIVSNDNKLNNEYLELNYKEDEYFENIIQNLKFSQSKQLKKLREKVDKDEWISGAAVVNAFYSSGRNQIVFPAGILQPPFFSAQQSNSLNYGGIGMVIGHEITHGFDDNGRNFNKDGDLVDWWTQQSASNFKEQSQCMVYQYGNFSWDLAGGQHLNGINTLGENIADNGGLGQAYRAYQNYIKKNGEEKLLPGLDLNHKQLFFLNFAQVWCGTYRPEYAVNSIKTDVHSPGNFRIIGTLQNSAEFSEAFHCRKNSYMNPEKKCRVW

| Compound | half-life at 100 uM [1] | cGMP response relative to 1 uM CNP22 (%) at 0.01 µM (NPR-B) | cGMP response relative to 1 uM CNP22 (%) at 1 µM (NPR-B) | half-life at 100 uM [1, 2] |
| --- | --- | --- | --- | --- |
| CC[C@H](C)[C@@H]1NC(=O)[C@H](CCCNC(=N)N)NC(=O)[C@H](CC(=O)O)NC(=O)[C@H](CC(C)C)NC(=O)[C@H](CCCCN)NC(=O)[C@H](CC(C)C)NC(=O)CNC(=O)[C@H](Cc2ccccc2)NC(=O)[C@@H](NC(=O)CNC(=O)[C@H](CCCNC(=N)N)NC(=O)[C@H](CO)NC(=O)[C@H](CC(C)C)NC(=O)CNC(=O)[C@@H](N)CCCNC(=N)N)CSSC[C@@H](C(=O)O)NC(=O)CNC(=O)[C@H](CC(C)C)NC(=O)CNC(=O)[C@H](CO)NC(=O)[C@H](CCSC)NC(=O)[C@H](CO)NC(=O)CNC1=O [AZ] (H-RGLSRGCFGLKLDRIGSMSGLGC-OH; disulfide 7-23 (inferred); N-terminus and C-terminus assumed) | ≥ 2.67 h | 54 ± 11% | 106 ± 15% | – |
| CC[C@H](C)[C@@H]1NC(=O)[C@H](CCCNC(=N)N)NC(=O)[C@H](CC(=O)O)NC(=O)[C@H](CC(C)C)NC(=O)[C@H](CCCCN)NC(=O)[C@H](CC(C)C)NC(=O)CNC(=O)[C@H](Cc2ccccc2)NC(=O)[C@@H](NC(=O)CNC(=O)[C@H](CCCNC(=N)N)NC(=O)[C@H](CO)NC(=O)[C@H](CC(C)C)NC(=O)CNC(=O)[C@H](CCCNC(=N)N)NC(=O)[C@H](CCCNC(=N)N)NC(=O)[C@H](CC(N)=O)NC(=O)[C@H](C)NC(=O)CN)CSSC[C@@H](C(=O)O)NC(=O)CNC(=O)[C@H](CC(C)C)NC(=O)CNC(=O)[C@H](CO)NC(=O)[C@H](CCSC)NC(=O)[C@H](CO)NC(=O)CNC1=O [AY] (H-GANRRGLSRGCFGLKLDRIGSMSGLGC-OH; disulfide 11-27 (inferred); N-terminus and C-terminus assumed) | 1.08 h | 59 ± 9% | 105 ± 20% | – |
| CC[C@H](C)[C@@H]1NC(=O)[C@H](CCCNC(=N)N)NC(=O)[C@H](CC(=O)O)NC(=O)[C@H](CC(C)C)NC(=O)[C@H](CCCCN)NC(=O)[C@H](CC(C)C)NC(=O)CNC(=O)[C@H](Cc2ccccc2)NC(=O)[C@@H](NC(=O)CNC(=O)[C@H](CCCCN)NC(=O)[C@H](CO)NC(=O)[C@H](CC(C)C)NC(=O)CNC(=O)CCCC(=O)NCCOCCOCCOCCOCCC(=O)NC(COCCC(=O)NCCOCCOCCOCCOCCOCCOCCOCCOCCOCCOCCOCCOC)(COCCC(=O)NCCOCCOCCOCCOCCOCCOCCOCCOCCOCCOCCOCCOC)COCCC(=O)NCCOCCOCCOCCOCCOCCOCCOCCOCCOCCOCCOCCOC)CSSC[C@@H](C(=O)O)NC(=O)CNC(=O)[C@H](CC(C)C)NC(=O)CNC(=O)[C@H](CO)NC(=O)[C@H](CCSC)NC(=O)[C@H](CO)NC(=O)CNC1=O [PEO4-(PEO12)3 (branched)-CNP22] | > 2.67 h | 17 ± 1% | 52 ± 6% | – |
| CCCCCCC(=O)N[C@@H](CCC(=O)O)C(=O)N[C@@H](CC(C)C)C(=O)N[C@@H](CO)C(=O)N[C@@H](CCC(=O)O)C(=O)NCC(=O)N[C@H]1CSSC[C@@H](C(=O)O)NC(=O)CNC(=O)[C@H](CC(C)C)NC(=O)CNC(=O)[C@H](CO)NC(=O)[C@H](CCSC)NC(=O)[C@H](CO)NC(=O)CNC(=O)[C@H]([C@@H](C)CC)NC(=O)[C@H](CCCNC(=N)N)NC(=O)[C@H](CC(=O)O)NC(=O)[C@H](CC(C)C)NC(=O)[C@H](CCCCN)NC(=O)[C@H](CC(C)C)NC(=O)CNC(=O)[C@H](Cc2ccccc2)NC1=O [AW] (Heptanoyl-ELSEGCFGLKLDRIGSMSGLGC-OH; disulfide 6-22; C-terminus assumed) | < 0.333 h | – | – | – |
| CCCCC(=O)N[C@@H](CCC(=O)O)C(=O)N[C@@H](CC(C)C)C(=O)N[C@@H](CO)C(=O)N[C@@H](CCC(=O)O)C(=O)NCC(=O)N[C@H]1CSSC[C@@H](C(=O)O)NC(=O)CNC(=O)[C@H](CC(C)C)NC(=O)CNC(=O)[C@H](CO)NC(=O)[C@H](CCSC)NC(=O)[C@H](CO)NC(=O)CNC(=O)[C@H]([C@@H](C)CC)NC(=O)[C@H](CCCNC(=N)N)NC(=O)[C@H](CC(=O)O)NC(=O)[C@H](CC(C)C)NC(=O)[C@H](CCCCN)NC(=O)[C@H](CC(C)C)NC(=O)CNC(=O)[C@H](Cc2ccccc2)NC1=O [AV] (Pentanoyl-ELSEGCFGLKLDRIGSMSGLGC-OH; disulfide 6-22 (inferred); C-terminus assumed) | – | – | – | 2 h |
| CC[C@H](C)[C@@H]1NC(=O)[C@H](CCCNC(=N)N)NC(=O)[C@H](CC(=O)O)NC(=O)[C@H](CC(C)C)NC(=O)[C@H](CCCCN)NC(=O)[C@H](CC(C)C)N(C)C(=O)CNC(=O)[C@H](Cc2ccccc2)NC[C@@H](NC(=O)CNC(=O)[C@H](CCCCN)NC(=O)[C@H](CO)NC(=O)[C@H](CC(C)C)NC(=O)CN)CSSC[C@@H](C(=O)O)NC(=O)CNC(=O)[C@H](CC(C)C)N(C)C(=O)CNC(=O)[C@H](CO)NC(=O)[C@H](CCSC)NC(=O)[C@H](CO)NC(=O)CNC1=O [J] | 0.833 h | – | – | – |

More lines, now with the values ahead:

| half-life at 100 uM [1] | cGMP response relative to 1 uM CNP22 (%) at 0.01 µM (NPR-B) | cGMP response relative to 1 uM CNP22 (%) at 1 µM (NPR-B) | half-life at 100 uM [1, 2] | Compound |
| --- | --- | --- | --- | --- |
| > 2.67 h | 34% | 101% | – | CC[C@H](C)[C@@H]1NC(=O)[C@H](CCCNC(=N)N)NC(=O)[C@H](CC(=O)O)NC(=O)[C@H](CC(C)C)NC(=O)[C@H](CCCCN)NC(=O)[C@H](CC(C)C)NC(=O)CNC(=O)[C@H](Cc2ccccc2)NC(=O)[C@@H](NC(=O)CNC(=O)[C@H](CCCCN)NC(=O)[C@H](CO)NC(=O)[C@H](CC(C)C)NC(=O)CNC(=O)[C@H](CCCNC(=N)N)NC(=O)[C@H](C)NC(=O)[C@H](Cc2c[nH]c3ccccc23)NC(=O)[C@H](C)NC(=O)[C@H](C)NC(=O)[C@H](CCCNC(=N)N)NC(=O)[C@H](CO)NC(=O)[C@H](CCCCN)NC(=O)[C@@H](NC(=O)[C@H](CC(=O)O)NC(=O)[C@@H](NC(=O)[C@H](CCCNC(=N)N)NC(=O)[C@H](CC(C)C)NC(=O)[C@@H](N)CC(=O)O)C(C)C)[C@@H](C)O)CSSC[C@@H](C(=O)O)NC(=O)CNC(=O)[C@H](CC(C)C)NC(=O)CNC(=O)[C@H](CO)NC(=O)[C@H](CCSC)NC(=O)[C@H](CO)NC(=O)CNC1=O [CC] (H-DLRVDTKSRAAWARGLSKGCFGLKLDRIGSMSGLGC-OH; disulfide 20-36 (inferred); N-terminus and C-terminus assumed) |
| – | – | – | 1.13 h | CC[C@H](C)[C@@H]1NC(=O)[C@H](CCCNC(=N)N)NC(=O)[C@H](CC(=O)O)NC(=O)[C@H](CC(C)C)NC(=O)[C@H](CCCCN)NC(=O)[C@H](CC(C)C)NC(=O)CNC(=O)[C@H](Cc2cccc(C)c2)NC(=O)[C@@H](NC(=O)CNC(=O)CNC(=O)[C@H](CO)NC(=O)[C@H](CC(C)C)NC(=O)CN)CSSC[C@@H](C(=O)O)NC(=O)CNC(=O)[C@H](CC(C)C)NC(=O)CNC(=O)[C@H](CO)NC(=O)[C@H](CCSC)NC(=O)[C@H](CO)NC(=O)CNC1=O [X] (H-GLSGGC[Phe(3-Me)]GLKLDRIGSMSGLGC-OH; disulfide 6-22) |
| > 2.67 h | 61% | 101% | – | DLRVDTKSRAAWARLLQEHPNARKYKGANKKGLSKGCFGLKLDRIGSMSGLGC (disulfide 37-53) [BM] |
| – | – | – | 1.13 h | CC[C@H](C)[C@@H]1NC(=O)[C@H](CCCNC(=N)N)NC(=O)[C@H](CC(=O)O)NC(=O)[C@H](CC(C)C)NC(=O)[C@H](CCCCN)NC(=O)[C@H](CC(C)C)NC(=O)CNC(=O)[C@H](Cc2ccc(Cl)c(Cl)c2)NC(=O)[C@@H](NC(=O)CNC(=O)CNC(=O)[C@H](CO)NC(=O)[C@H](CC(C)C)NC(=O)CN)CSSC[C@@H](C(=O)O)NC(=O)CNC(=O)[C@H](CC(C)C)NC(=O)CNC(=O)[C@H](CO)NC(=O)[C@H](CCSC)NC(=O)[C@H](CO)NC(=O)CNC1=O [V] (H-GLSGGC[Phe(3,4-Cl2)]GLKLDRIGSMSGLGC-OH; disulfide 6-22) |
